This is an account of results in publication PMC8713283 (Journal of Medicinal Chemistry, 2021).

Values joined by “and” are separate entries in the source; they are usually repeats but may differ in a detail not shown here. Identical values can stand only once.

The conditions of data set [1]: human.
A short description of data set [2]: Log D(dec/w) shake flask partition coefficient. It is filed as physicochemical. As to conditions: 1,9-decadiene/PBS; 1,9-decadiene and PBS pH 7.4 shake flask partition coefficient.
The conditions of data set [3]: LPEester – LPEamide by amide–ester matched pairs.
The test system of a further data set is P-gp (human MDR1). Put plainly: in vitro. As to conditions: dog; for Papp A→B at 5 µM / Papp B→A at 5 µM: MDCK-MDR1; for efflux ratio at 5 µM: MDCK-MDR1, Efflux ratio B-A/A-B, MDCK-MDR1, 5 µM, N = 2.
A short description of a further data set: in vitro. To be noted: PAMPA. (In general: In PAMPA a lipid-coated filter parts donor from acceptor wells.)
Another data set has as its target T1, VHL + Brd4BD2 (Homo sapiens, UniProt O60885+P40337).
T1 construct: Brd4-BD2 (333–460); His6 (N, cleaved yes); made in house; host or cells: E. coli
It is filed as binding. To be noted: for ΔpKd: Log10(α) = pKd ternary - pKd binary.

The next data set deals with VHL + Brd4BD1 (Homo sapiens, UniProt O60885+P40337). As to conditions: for ΔpKd: Log10(α) = pKd ternary - pKd binary; for Cooperativity α: α = Kd binary/Kd ternary.
A further data set deals with VHL + Brd3BD1 (Homo sapiens, UniProt P40337+Q15059). As to conditions: for ΔpKd: Log10(α) = pKd ternary - pKd binary; for Cooperativity α: α = Kd binary/Kd ternary.
The target in another data set is T2, VHL + Brd2BD2 (Homo sapiens, UniProt P25440+P40337).
T2 construct: Brd2-BD2 (344–455); His6 (N, cleaved yes); made in house; host or cells: E. coli
The data set is described as follows: FP competition, ternary binding to VHL with Brd2BD2. To be noted: for ΔpKd: Log10(α) = pKd ternary - pKd binary.

The next data set deals with T3, VHL + Brd3BD2 (Homo sapiens, UniProt P40337+Q15059).
T3 construct: Brd3-BD2 (306–416); His6 (N, cleaved yes); made in house; host or cells: E. coli
The data set is described as follows: FP competition, ternary binding to VHL with Brd3BD2. To be noted: for ΔpKd: Log10(α) = pKd ternary - pKd binary; for Cooperativity α: α = Kd binary/Kd ternary.

Another data set has as its target T4, Brd4 (Homo sapiens, UniProt O60885).
T4 construct: endogenous in cells; host or cells: HEK293
The data set is described as follows: Western blot degradation of Brd4 in HEK293 cells. Format: cell-based. As to conditions: HEK293, 4 h, 10 μM, N = 1.

The target of a further data set is T5, Brd2 (Homo sapiens, UniProt P25440).
T5 construct: endogenous in cells; host or cells: HEK293
Put plainly: Western blot degradation of Brd2 in HEK293 cells. It is filed as cell-based. For orientation: In western blotting, separated proteins are transferred to a membrane and probed.

The target in the next data set is T6, VHL + Brd2BD1 (Homo sapiens, UniProt P25440+P40337).
T6 construct: His6 (N, cleaved yes); made in house; host or cells: E. coli
The data set is described as follows: FP competition, ternary binding to VHL with Brd2BD1.

Consider `COCC(=O)OCCCCCC(=O)N[C@H](C(=O)N1C[C@H](O)C[C@H]1C(=O)NCc1ccc(-c2scnc2C)cc1)C(C)(C)C` [Compound 8, 6-(((S)-1-((2S,4R)-4-Hydroxy-2-((4-(4-methylthiazol-5-yl)benzyl)carbamoyl)pyrrolidin-1-yl)-3,3-dimethyl-1-oxobutan-2-yl)amino)-6-oxohexyl 2-methoxyacetate], for which, in [1], the Plasma stability turned out to be 1 ± 0.4%. The compound further came in with a logD hydrocarbon water in data set [2] of -1.7. For the same compound, the ΔLPE in [3] was -0.2. Further, in the data set on P-gp (human MDR1), the apical-to-basolateral permeability (Papp A→B) at 5 µM was 4 nm/s, the basolateral-to-apical permeability (Papp B→A) at 5 µM was 110 nm/s and the efflux ratio at 5 µM stood at 26.

`CCCC(=O)OCCCCCC(=O)N[C@H](C(=O)N1C[C@H](O)C[C@H]1C(=O)NCc1ccc(-c2scnc2C)cc1)C(C)(C)C` [Compound 9, 6-(((S)-1-((2S,4R)-4-Hydroxy-2-((4-(4-methylthiazol-5-yl)benzyl)carbamoyl)pyrrolidin-1-yl)-3,3-dimethyl-1-oxobutan-2-yl)amino)-6-oxohexyl Butyrate] displayed a Plasma stability in data set [1] of 13 ± 1%. The logD hydrocarbon water in [2] is -0.5. Also, the ΔLPE in data set [3] turned out to be 1.1. In the data set on P-gp (human MDR1), the apparent permeability from apical to basolateral (Papp A→B) at 5 µM worked out at 9 nm/s, the Papp B→A at 5 µM came to 470 nm/s and the efflux ratio at 5 µM stood at 55. In the data set “in vitro”, the apparent permeability (Papp) stood at 65 nm/s.

As to `Cc1ncsc1-c1ccc(CNC(=O)[C@@H]2C[C@@H](O)CN2C(=O)[C@@H](NC(=O)CCCCCOC(=O)C2CCCCC2)C(C)(C)C)cc1` [Compound 11, 6-(((S)-1-((2S,4R)-4-Hydroxy-2-((4-(4-methylthiazol-5-yl)benzyl)carbamoyl)pyrrolidin-1-yl)-3,3-dimethyl-1-oxobutan-2-yl)amino)-6-oxohexyl cyclohexanecarboxylate], the Plasma stability in [1] is recorded as 14 ± 1%. Also, in data set [2], the logD hydrocarbon water amounted to 1.1. For the same compound, the ΔLPE in [3] is 1.8. For the same compound, in the data set with P-gp (human MDR1), the apical-to-basolateral permeability (Papp A→B) at 5 µM worked out at 3 nm/s, the basolateral-to-apical permeability (Papp B→A) at 5 µM is 356 nm/s and the efflux ratio at 5 µM was found to be 142.

`Cc1ncsc1-c1ccc(CNC(=O)[C@@H]2C[C@@H](O)CN2C(=O)[C@@H](NC(=O)CCCCCOC(=O)CC23CC4CC(CC(C4)C2)C3)C(C)(C)C)cc1` [Compound 12, 6-(((S)-1-((2S,4R)-4-Hydroxy-2-((4-(4-methylthiazol-5-yl)benzyl)carbamoyl)pyrrolidin-1-yl)-3,3-dimethyl-1-oxobutan-2-yl)amino)-6-oxohexyl 2-(adamantan-1-yl)acetate] came in with a Plasma stability in [1] of 80 ± 11%. In addition, in data set [2], the logD hydrocarbon water came to 2.4. The ΔLPE in data set [3] amounted to 1.8. For the same compound, the Papp B→A at 5 µM in the data set with P-gp (human MDR1) turned out to be 45 nm/s.

In turn, `Cc1ncsc1-c1ccc(CNC(=O)[C@@H]2C[C@@H](O)CN2C(=O)[C@@H](NC(=O)CCCCCOC(=O)CC(c2ccccc2)c2ccccc2)C(C)(C)C)cc1` [Compound 13, 6-(((S)-1-((2S,4R)-4-Hydroxy-2-((4-(4-methylthiazol-5-yl)benzyl)carbamoyl)pyrrolidin-1-yl)-3,3-dimethyl-1-oxobutan-2-yl)amino)-6-oxohexyl 3,3-diphenylpropanoate] had a Plasma stability in [1] of 58 ± 6%. This compound registered a logD hydrocarbon water in [2] of 1.9. The ΔLPE in data set [3] is 1.6. In the data set on P-gp (human MDR1), the Papp A→B at 5 µM was found to be 2 nm/s, the basolateral-to-apical permeability (Papp B→A) at 5 µM stood at 139 nm/s and the efflux ratio at 5 µM came out at 84.

In the case of `Cc1ncsc1-c1ccc(CNC(=O)[C@@H]2C[C@@H](O)CN2C(=O)[C@@H](NC(=O)COCCOCCOCCNC(=O)C[C@@H]2N=C(c3ccc(Cl)cc3)c3c(sc(C)c3C)-n3c(C)nnc32)C(C)(C)C)cc1` [Compound 21, MZ1], the “PAMPA Pe” value is listed as 0.01 ×10^–6 cm/s. Further, the ΔpKd on VHL + Brd4BD2 came out at 1.73. On VHL + Brd4BD1, the ΔpKd was 0.62 and the “Cooperativity α” value is listed as 4.2. Further, at VHL + Brd3BD1, the ΔpKd was 0.45 and the “Cooperativity α” value came to 2.8. The ΔpKd at VHL + Brd2BD2 was 1.46. Also, the Papp B→A at 5 µM in the data set with P-gp (human MDR1) amounted to 15 nm/s. Besides, on VHL + Brd3BD2, the ΔpKd worked out at 0.73 and the “Cooperativity α” value was found to be 5.3.

On to `Cc1ncsc1-c1ccc([C@H](C)NC(=O)[C@@H]2C[C@@H](O)CN2C(=O)[C@@H](NC(=O)COCCCOCCNC(=O)C[C@@H]2N=C(c3ccc(Cl)cc3)c3c(sc(C)c3C)-n3c(C)nnc32)C(C)(C)C)cc1` [Compound 22, ARV-771], for which the ΔpKd on VHL + Brd4BD2 was determined as 1.12; at VHL + Brd2BD1 (Log10(α) = pKd ternary - pKd binary) it was 0.38; on VHL + Brd4BD1 it was 0.42; on VHL + Brd3BD1 it was 0.30; on VHL + Brd2BD2, 0.66; on VHL + Brd3BD2, 0.64. Moreover, the “Cooperativity α” value at VHL + Brd4BD2 (α = Kd binary/Kd ternary) turned out to be 13; on VHL + Brd2BD1 (α = Kd binary/Kd ternary), 2.4; on VHL + Brd4BD1, 2.6; on VHL + Brd3BD1, 2.0; at VHL + Brd2BD2 (α = Kd binary/Kd ternary), 4.6; on VHL + Brd3BD2, 4.3. Besides, the “Hook effect, Brd4 protein levels” value on Brd4 is listed as “exhibited a hook effect”. The “pDC50 Brd2” value at Brd2 (HEK293, 4 h, 1 μM to 100 pM, mean ± S.E., three experiments) is 6.9 ± 0.2 and 7.4 ± 0.1. Also, on Brd2 (read-out: DC50 Brd2, HEK293 cells), the DC50 turned out to be 0.042 µM. The Kd at VHL + Brd2BD2 (read-out: pKd ternary (converted)) is 0.00741 µM.

What is called Papp A→B is the apparent permeability from the apical to the basolateral side of a cell layer. Read a high Papp A→B as fast passage. The term Papp B→A denotes the apparent permeability from the basolateral to the apical side of a cell layer. As a reminder, the efflux ratio is the permeability from basolateral to apical divided by that in the opposite direction, in the common usage. In general, Papp refers to the rate of passage across a membrane or cell layer, normalised by area and donor concentration. A high value points to fast passage. For orientation: DC50 means the concentration giving 50% degradation.
